# Experimental data: publication PMC12267067, “Targeting GRPR for sex hormone-dependent cancer after loss of E-cadherin” (Nature, 2025)
# No end group written: not given here.
# Key:
# Assay type in all cases: cell-based
# [1] = test system: mouse melanoma cell lines (1057, 1064, 1181, 1014); assay: Cell growth (cell counting), mouse melanoma cell lines; settings: 48 h
# Description: Six-well tissue-culture plates were seeded with 3 × 10^5 melanoma cells in complete medium. After 24 h, the medium was replaced by low-serum medium (0.5% for murine melanoma cell lines and 1% for human melanoma cells) and the cells were incubated for a further 18 h before stimulation with 10 nM GRP (4011670 bachem) and/or 1 µM RC (R9653, Sigma-Aldrich) for 48 h. The plates were trypsinized just after stimulation or 48 h later and the cells were counted. For the MTT assay, 10,000 cells were seeded per well in 96-well plates. After 24 h, cells were starved overnight and then treated with 10 nM GRP and/or 1 µM RC for 48 h in low-serum medium (0.5% FBS). Next, MTT (M5655, Sigma-Aldrich) was added to the wells to a final concentration of 0.5 mg ml^−1 and the plates were incubated for 3 h. The medium was removed and formazan crystals dissolved in 200 µl DMSO. The absorbance was read at 570 nm using a LUMIstar Omega […] (BMG Labtech). All growth experiments were done using three technical replicates and three biological replicates. For the clonogenic assay, six-well tissue-culture plates were seeded with 500 cells in complete medium. After 10 days (20 days for 1181), colonies were fixed with 4% PFA for 15 min and stained with 10% crystal violet in ethanol for 20 min and counted in images using ImageJ software. Experiments were done in triplicate.
# [2] = test system: human melanoma cells (MDA-MB-435S); assay: Anoikis assay, human melanoma cells; settings: 10 nM GRP and/or 1 µM RC, 48 h, poly-HEMA, low serum, annexin V/7-AAD
# Description: Six-well plates were coated with poly-HEMA to prevent cell attachment to the well surface. Cells were seeded in low-serum medium containing 10 nM GRP and/or 1 µM RC. Then, 48 hours after cell seeding, cells were collected and washed with ice-cold PBS twice and resuspended in annexin V binding buffer (556454, BD Biosciences) and incubated at room temperature in the dark with 7-amino-actinomycin D (7-AAD, 559925, BD Biosciences) and annexin-V for 15 min. Annexin V was coupled to FITC (556420, BD Biosciences) for the 1057 and MDA-MB-435S cell lines and to PE (556421, BD Biosciences) for the other cell lines. Cells were sorted using a FACS LSRFortessa (BD Biosciences) to determine the percentage of annexin V- and/or 7-AAD-positive cells using a 488 nm laser for annexin V-FITC and annexin V-PE and a 675 nm laser for7-AAD. All quantification was performed using Flow-Jo.
# [3] = test system: YAP1 activation signature; assay: YAP1 activation signature (GSEA) and YAP1 score by RNA-seq, human melanoma cell lines; settings: 4 h, 10 nM GRP
# Description: The transcriptome, copy-number alteration, mutations and corresponding clinical data of the TCGA–SKCM (n = 473), TCGA–BRCA (n = 1,215), TCGA–STAD (n = 450), TCGA–LUSC (n = 553) and TCGA–KIRC (n = 606) datasets were retrieved from the National Cancer Institute Genomic Data Commons repository using the TCGAbiolinks R package in August 2022 (ref. [51]). The mRNA levels were calculated from RNA-sequencing read counts using RNA-Seq V2 RSEM and normalized to TPM. Expression of CDH1, CCND1, BRAF and KRAS was modelled over time using LOWESS smoothing with 1,860 points. Expression levels from acral melanoma were retrieved from GEO under accession number GSE162682. Survival analyses were carried out by separating the cohort into two groups according to gene expression. The threshold was set to 1 TPM, commonly considered to be the limit for sufficient protein expression of the transcript. The negative group was set to an expression 0.1 TPM or less to have clear separation in terms of expression (factor 10) from the positive group. […] The scoring of YAP1 activation was determined from the expression of CYR61, CTGF, TEAD4, LATS2 and CRIM1. […] The anoikis-resistance score was calculated on the basis of the expression of S100A7A, MTPN, ATP10B, S100A8, RSAD2, RENBP, CDHR1 and CD36. The ER-activation score was calculated according to the expressions of GATA4, SDK2, EGR3, IL19, GSG1L, RSPO1, PGR, IL24 and PDZK1. […]
# RNA was extracted from cells and mouse tumours using the miRNeasy kit (Qiagen, 217004), according to the manufacturer’s protocol. RNA integrity (RIN) was measured using an Agilent Bioanalyser 2100 (Agilent Technologies) and an RNA nano 6000 kit (5067-1511, Agilent Technologies). […] RNA concentrations were measured using a NanoDrop (NanoDrop Technologies). […] The libraries were equimolarly pooled and subjected to qPCR quantification using the KAPA library quantification kit (Roche). […] Reads were mapped to the mm10 mouse reference genome (gencode m13 version-GRCm38.p5) or hg38 human reference genome (gencode 42 version-GRCh38.p13) using STAR[60]. […]
substance,measurement,setting,value
"GRP: GRPR's natural agonist, endogenous ligand of GRPR (4011670 bachem) (VPLPAGGGTVLTKMYPRGNHWAVGHLM; not fully specified; ends and bridges not checked; UniProt P07492 24-50, looked up)","cell growth, GRPR-positive mouse lines","[1]; 1057 and 1064, 10 nM GRP and/or 1 µM RC, low serum 0.5%",promoted growth
same,"cell growth, GRPR-negative mouse cells","[1]; 1181 and 1014, 10 nM GRP, low serum",had no effect
same,"anoikis resistance (apoptotic cells without matrix attachment), GRPR+ human cells",[2],promoted
same,"GSEA YAP activation, GRP vs. Mock: NES","[3]; 501mel-GRPR, FDR <0.0001",2.07
same,"GSEA YAP activation, GRP vs. Mock: NES","[3]; Dauv-1, FDR <0.0001",2.21
same,"GSEA YAP activation, GRP vs. Mock: NES","[3]; MDA-MB-435S, FDR =0.0408",1.32
